# Source: US6958333B1, “Biarylurea derivatives” (Banyu Pharmaceutical Co., Ltd., priority 1999, dated 2005)
# How the values were obtained:
# cyclin D3-Cdk6 = molecular target: T1, cyclin D3-Cdk6 (Homo sapiens, UniProt Q00534); experiment: Enzyme assay of cyclin D3-Cdk6 (33P-ATP phosphorylation of peptide substrate); type: biochemical; conditions: 100 μM peptide substrate, 50 μM ATP, 30° C.
# T1 construct: made in house; host or cells: Sf9 insect cells, baculovirus co-infection
# Text: • (1) Preparation of cyclin D1-Cdk6 and cyclin D3-Cdk6
# As the same method of preparing cyclin D1-Cdk4, cDNA of Cdk6 and its activator cyclin D1 or D3 was recombined with baculovirus-expression vector to make recombinant baculovirus. This was co-infected to insect cell Sf9 to express an active complex of cyclin D1-Cdk6 or cyclin D3-Cdk6. The cells were recovered and solubilized and purified by HPLC columnchromatography. • (2) Enzyme assay of cyclin D1-Cdk6 and cyclin D3-Cdk6.
# A peptide substrate used for cyclin D1-Cdk6 was synthetic peptide ([…] (SEQ ID No. 2) and that used for cyclin D3-Cdk6 was synthetic peptide ([…] (SEQ ID No. 3) (The EMBO J. vol. 15, p. 7060-7069, 1996).
# The reaction was carried out using the modified procedure of Kitagawa's method (Oncogene, vol.7, p.1067-1074, 1992). The volume of the reaction solution was 21.1 μL. Purified cyclin D1-Cdk6 in R buffer and 400 μM peptide substrate or cyclin D3-Cdk6 and 100 μM pipetide substrate, unlabeled ATP (50 μM) and 1 μCi ATP labeled with γ-33P(2000-4000 Ci/mmole) were added to the reaction mixture. The mixture was incubated at 30° C. for 20 or 45 min. Then, 10 μL of phosphate buffer (350 mM) was added to stop the reaction. The peptide substrate was absorbed to P81 paper and its radioactivity was measured by a liquid scintillation counter. […]
# cyclin D2-Cdk4 = cyclin D2-Cdk4 (Homo sapiens, UniProt P11802); experiment: Enzyme assay of cyclin D2-Cdk4 (33P-ATP phosphorylation of RB peptide substrate); type: biochemical; conditions: Table 1, second value column (head repeats cyclin D1-Cdk4); 50 μM ATP, 100 μM peptide substrate, 30° C., 45 min
# Text: • (1) Preparation of cyclin D1-Cdk4 and cyclin D2-Cdk4
# cDNA of Cdk4 and its activator cyclin D1 or D2 was subcloned into a baculovirus-expression vector to make recombinant baculovirus and then, they are co-infected to insect cell Sf9 to express an active complex of cyclin D1-Cdk4 or cyclin D2-Cdk4. The cells were recovered and solubilized and purified by HPLC columnchromatography (The the enzyme are EMBO J. vol.15, p.7060-7069, 1996). • (2) Enzyme assay of cyclin D1-Cdk4 and cyclin D2-Cdk4
# The reaction was carried out using the modified procedure of Kitagawa's method (Oncogene, vol.7, p.1067-1074, 1992). The volume of the reaction solution was 21.1 μL. The reaction buffer (R buffer) consisted of 20 mM Tri-HCl buffer (pH7.4)/10 mM MgCl2/4.5 mM 2-mercaptoethanol/1 mM ethyleneglycolbis(β-aminoethylether)-N,N,N′,N′-tetracetic acid (EGTA). Purified cyclin D1-Cdk4 or D2-Cdk4, 100 μM peptide substrate, 50 μM unlabeled ATP and ATP labeled with 1 μCi γ-33P(2000-4000 Ci/mmole) were added to the reaction mixture. The mixture was incubated at 30° C. for 45 min. 10 μL of phosphate buffer (350 mM) was added to stop the reaction. The peptide substrate was absorbed to P81 paper and its radioactivity was measured by a liquid scintillation counter. ATP labeled with γ-33P was purchased from Daiich Chemicals, Ltd. […]
# HCT116 cells = experiment: Activity of inhibiting cell growth, HCT116 (sulforhodamine B); type: cell-based; conditions: Homo sapiens, HCT-116, 72 h, cell growth inhibition, 3 days incubation
# Method: (§1) Activity of Inhibiting Cell Growth
# (§2) • (1) Method of cell culture
# (§3) Clinical separative cancer cells HCT116 were cultured in Dulbecco′ modified Eagle's medium with 10% Fetal Bovine Serum, and clinical separative cancer cells MKN-1 were cultured in RPMI1640 medium added 10% Fetal Bovine Serum. Both cells were cultured at 37° C., under 5% CO2 and saturated steam. • (2) Determination of activity of inhibiting cell growth
# (§4) The activity of inhibiting cell growth was measured using the modified method of Skehan's method (J. Natl. Cancer Inst. Vol.82, p.1107-1112, 1990), and so on. One hundred μL each of the culture medium containing 1×10^3 HCT116 or MKN-1 as living cells was pipetted to 96-well dish and cultured over night. […] Then, the diluted compounds or DMSO as the control, was added to the medium. One hundred μL of the medium added with the diluted drug solutions or DMSO was added to the cells cultured in 96-well dish, and was incubated for further 3 days.
# (§5) To each well, 50 μL of trichloroacetic acid (50%) was added to fix the cells. The cells were stained using 0.4% sulforhodamine B. Sulforhodamine B was extracted with 10 mM tris buffer, and the optical density at 560 nm was compared with that of control at 450 nm.
# MKN-1 cells = experiment: Activity of inhibiting cell growth, MKN-1 (sulforhodamine B); type: cell-based; conditions: Homo sapiens, MKN-1, 72 h, cell growth inhibition, 3 days incubation
# Method: as §1, §2, §3, §4, §5
# cyclin D2-Cdk4, sequence (P11802 whole entry): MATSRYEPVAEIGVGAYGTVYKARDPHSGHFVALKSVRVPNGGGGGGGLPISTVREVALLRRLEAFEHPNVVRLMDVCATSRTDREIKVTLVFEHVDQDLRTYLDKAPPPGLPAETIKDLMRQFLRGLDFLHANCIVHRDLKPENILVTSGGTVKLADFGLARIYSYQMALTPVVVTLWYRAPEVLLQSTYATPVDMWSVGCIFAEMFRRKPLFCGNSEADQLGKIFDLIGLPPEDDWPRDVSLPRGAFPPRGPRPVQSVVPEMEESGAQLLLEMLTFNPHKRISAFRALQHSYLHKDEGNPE
# T1 sequence (Q00534 whole entry): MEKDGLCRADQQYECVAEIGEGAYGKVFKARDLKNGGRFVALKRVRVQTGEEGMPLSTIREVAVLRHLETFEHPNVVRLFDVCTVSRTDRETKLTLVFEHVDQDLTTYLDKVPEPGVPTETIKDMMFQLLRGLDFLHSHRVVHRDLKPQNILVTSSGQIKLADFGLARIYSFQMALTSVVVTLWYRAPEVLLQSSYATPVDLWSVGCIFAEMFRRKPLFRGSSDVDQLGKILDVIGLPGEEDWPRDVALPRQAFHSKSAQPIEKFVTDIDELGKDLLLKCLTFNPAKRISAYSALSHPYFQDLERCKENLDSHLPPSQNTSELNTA
# T1 sequence (P30281 whole entry partner): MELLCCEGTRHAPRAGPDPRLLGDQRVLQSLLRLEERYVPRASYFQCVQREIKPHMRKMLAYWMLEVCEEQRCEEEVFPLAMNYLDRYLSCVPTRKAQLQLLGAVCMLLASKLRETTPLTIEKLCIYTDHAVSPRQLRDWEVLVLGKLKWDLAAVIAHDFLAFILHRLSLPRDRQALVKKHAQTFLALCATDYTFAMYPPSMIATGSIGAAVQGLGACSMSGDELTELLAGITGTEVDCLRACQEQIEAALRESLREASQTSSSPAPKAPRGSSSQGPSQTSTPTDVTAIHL
IC50 (cyclin D3-Cdk6) [µM],IC50 (cyclin D2-Cdk4) [µM],IC50 (HCT116 cells) [µM],IC50 (MKN-1 cells) [µM],SMILES
0.013,0.016,,,"O=C(Nc1cc(C2CCN(Cc3ccccc3)C2)ccn1)Nc1cccc2c1C1CCCN1C2=O (stereo not shown) [Working Example No. 165, N′-(pyrrolidino[2,1-b]isoindolin-4-on-8-yl)-N-(4-(N-benzylpyrrolidin-3-yl)pyridin-2-yl)urea]"
,,0.15,0.87,"CN1CC[C@H](c2c(O)cc(O)c3c(=O)cc(-c4ccccc4Cl)oc23)[C@H](O)C1 (racemic) [(±)flavopiridol, flavopiridol]"
